Data taken from patent publication EP0666841B1, “SUCCINOYLAMINO HYDROXYETHYLAMINO SULFAMIC ACID DERIVATIVES USEFUL AS RETROVIRAL PROTEASE INHIBITORS” (G.D. SEARLE & CO., priority 1992, dated 1994).

Molecular target: T1, HIV protease (Human immunodeficiency virus type 1 group M subtype B, UniProt P04585)
T1 construct: HIV protease is diluted in the assay buffer to a final enzyme concentration of 12.3 nanomolar, based on a molecular weight of 10,780
Experiment: HIV protease enzyme assay (fluorescence, peptide substrate)
Format: biochemical
Conditions: read-out: IC50 or % inhibition
From the text: The compounds of the present invention are effective HIV protease inhibitors. Utilizing an enzyme assay as described below, the compounds set forth in the examples herein disclosed inhibited the HIV enzyme. The preferred compounds of the present invention and their calculated IC50 (inhibiting concentration 50%, i.e., the concentration at which the inhibitor compound reduces enzyme activity by 50%) values are shown in Table 17. The enzyme method is described below. The substrate is 2-Ile-Nle-Phe(p-NO2)-Gln-ArgNH2. The positive control is MVT-101 (Miller, M. et al, Science, 246, 1149 (1989)] The assay conditions are as follows: Assay buffer: 20 mM sodium phosphate, pH 6.4 20% glycerol 1 mM EDTA 1 mM DTT 0.1% CHAPS
The above described substrate is dissolved in DMSO, then diluted 10 fold in assay buffer. Final substrate concentration in the assay is 80 µM.
HIV protease is diluted in the assay buffer to a final enzyme concentration of 12.3 nanomolar, based on a molecular weight of 10,780.
The final concentration of DMSO is 14% and the final concentration of glycerol is 18%. The test compound is dissolved in DMSO and diluted in DMSO to 10x the test concentration; 10µl of the enzyme preparation is added, the materials mixed and then the mixture is incubated at ambient temperature for 15 minutes. The enzyme reaction is initiated by the addition of 40µl of substrate. The increase in fluorescence is monitored at 4 time points (0, 8, 16 and 24 minutes) at ambient temperature. Each assay is carried out in duplicate wells.

`CNS(=O)(=O)N(CC(C)C)C[C@@H](O)[C@H](Cc1ccccc1)NC(=O)OCc1ccccc1` [A] was tested, and the inhibition at 0.1 µM was 29%.

Work on `CN(C)S(=O)(=O)N(Cc1ccc(F)cc1)C[C@@H](O)[C@H](Cc1ccccc1)NC(=O)OCc1ccccc1` [B] yielded an inhibition at 10 µM of 55%.

With `CC(C)CN(C[C@@H](O)[C@H](Cc1ccccc1)NC(=O)OCc1ccccc1)S(=O)(=O)NC(C)C` [C] the inhibition at 1 µM was 59%.

In the case of `CC(C)CN(C[C@@H](O)[C@H](Cc1ccccc1)NC(=O)OCc1ccccc1)S(=O)(=O)N1CCN(C)CC1` [D], the inhibition at 0.1 µM is reported as 29%.

`CC(C)CN(C[C@@H](O)[C@H](Cc1ccccc1)NC(=O)OCc1ccccc1)S(=O)(=O)Nc1ccccc1` [E] gave an IC50 (IC50 values printed in nM) of 70 nM.

`CC(C)CN(C[C@@H](O)[C@H](Cc1ccccc1)NC(=O)OCc1ccccc1)S(=O)(=O)N1CCCC1` [F] was tested, and the inhibition at 0.1 µM was 22%.

`CC(C)(C)NS(=O)(=O)N(Cc1ccccc1)C[C@@H](O)[C@H](Cc1ccccc1)NC(=O)OCc1ccccc1` [H] gave an inhibition at 10 µM of 48%.

`CC(C)(C)NS(=O)(=O)N(C[C@@H](O)[C@H](Cc1ccccc1)NC(=O)OCc1ccccc1)C1CCCCC1` [K] was tested, and the inhibition at 1 µM was 60%.
